Results: patent publication US20240343704A1, “HALO-SUBSTITUTED AMINO PYRIDINE COMPOUNDS AS INHIBITORS OF THE HAEMATOPOIETIC PROGENITOR KINASE 1 (HPK1)” (priority 2021, published 2024)

Target: T1, Recombinant (1-346) HPK1 (h) (Homo sapiens, UniProt Q92918)
T1 construct: Recombinant (1-346) HPK1 (h) is incubated with 8 mM MOPS pH 7.0
T1 sequence (Q92918 1-346): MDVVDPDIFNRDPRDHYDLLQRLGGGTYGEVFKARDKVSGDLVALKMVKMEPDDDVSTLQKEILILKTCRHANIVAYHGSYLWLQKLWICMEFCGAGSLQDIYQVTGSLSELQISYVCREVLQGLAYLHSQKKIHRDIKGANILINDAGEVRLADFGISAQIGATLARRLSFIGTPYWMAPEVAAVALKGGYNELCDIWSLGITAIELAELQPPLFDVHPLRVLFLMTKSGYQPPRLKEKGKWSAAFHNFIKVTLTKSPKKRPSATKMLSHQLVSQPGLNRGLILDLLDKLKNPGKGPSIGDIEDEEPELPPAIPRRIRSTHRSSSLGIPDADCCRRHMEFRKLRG
Test: HPK1 Human STE Kinase Enzymatic Radiometric Assay
Format: biochemical
Conditions: read-out: HPK1 IC50 nM Range*
Method: A stock solution of 10 mM of test compound is prepared in DMSO. The compound plate was prepared by 3-fold and 9-point serial dilutions. […] The reaction is initiated by The addition of the Mg/ATP mix. After incubation for 40 minutes at RT, the reaction is stopped by the addition of phosphoric acid to a concentration of 0.5%.

IC50	Compound
0.1 to 10 nM	COCCN(C)Cc1nc(-c2cc(-c3cc4c(cc3F)C(=O)NCC4)c(N)nc2F)ccc1N1CCOCC1 [I-583, 6-(6′-amino-2′-fluoro-6-(((2-methoxyethyl)(methyl)amino)methyl)-5-morpholino-[2,3′-bipyridin]-5′-yl)-7-fluoro-3,4-dihydroisoquinolin-1(2H)-one]
0.1 to 10 nM	CO[C@H]1CCN(Cc2nc(-c3cc(-c4ccc5c(c4)CCNC5=O)c(N)nc3F)ccc2N2CCOCC2)C1 [I-584, (S)-6-(6′-amino-2-fluoro-6-((3-methoxypyrrolidin-1-yl)methyl)-5-morpholino-[2,3′-bipyridin]-5′-yl)-3,4-dihydroisoquinolin-1(2H)-one]
0.1 to 10 nM	CO[C@H]1CCN(Cc2nc(-c3cc(-c4cc5c(cc4F)C(=O)NCC5)c(N)nc3F)ccc2N2CCOCC2)C1 [I-585, (S)-6-(6′-amino-2-fluoro-6-((3-methoxypyrrolidin-1-yl)methyl)-5-morpholino-[2,3′-bipyridin]-5′-yl)-7-fluoro-3,4-dihydroisoquinolin-1(2H)-one]
11 to 100 nM	Cc1c[nH]c(=O)c2ccc(-c3cc(-c4ccc(C5CCOCC5)cc4)c(F)nc3N)cc12 [I-586, 6-(2-amino-6-fluoro-5-(4-(tetrahydro-2H-pyran-4-yl)phenyl)pyridin-3-yl)-4-methylisoquinolin-1(2H)-one]
11 to 100 nM	Cc1cc2cc(-c3cc(-c4ccc(N5CCN(C(C)C)CC5)cc4)c(F)nc3N)c(F)cc2c(=O)[nH]1 [I-587, 6-(2-amino-6-fluoro-5-(4-(4-isopropylpiperazin-1-yl)phenyl)pyridin-3-yl)-7-fluoro-3-methylisoquinolin-1(2H)-one]
0.1 to 10 nM	Cc1c[nH]c(=O)c2ccc(-c3cc(-c4ccc(N5CCOCC5)c(CN(C)C)n4)c(F)nc3N)cc12 [I-588, 6-(6′-amino-6-((dimethylamino)methyl)-2′-fluoro-5-morpholino-[2,3′-bipyridin]-5′-yl)-4-methylisoquinolin-1(2H)-one]
0.1 to 10 nM	CN(C)Cc1nc(-c2cc(-c3ccc4c(=O)[nH]cc(F)c4c3)c(N)nc2F)ccc1N1CCOCC1 [I-589, 6-(6′-amino-6-((dimethylamino)methyl)-2′-fluoro-5-morpholino-[2,3′-bipyridin]-5′-yl)-4-fluoroisoquinolin-1(2H)-one]
0.1 to 10 nM	CC(C)(C)OC(=O)N1CCN(c2ccc(-c3cc(-c4ccc5c(c4)CCNC5=O)c(N)nc3F)nc2)CC1 [I-590, tert-butyl4-(6′-amino-2′-fluoro-5′-(1-oxo-1,2,3,4-tetrahydroisoquinolin-6-yl)-[2,3′-bipyridin]-5-yl) piperazine-1-carboxylate]
0.1 to 10 nM	CC(=O)N1CCN(c2ccc(-c3cc(-c4cc5c(cc4F)C(=O)NCC5)c(N)nc3F)nc2)CC1 [I-592, 6-(5-(4-acetylpiperazin-1-yl)-6′-amino-2′-fluoro-[2,3′-bipyridin]-5′-yl)-7-fluoro-3,4-dihydroisoquinolin-1(2H)-one]
0.1 to 10 nM	Nc1nc(F)c(-c2ccc(N3CCN(CCCC(F)F)CC3)cn2)cc1-c1ccc2c(c1)CCNC2=O [I-593, 6-(6′-amino-5-(4-(4,4-difluorobutyl)piperazin-1-yl)-2′-fluoro-[2,3′-bipyridin]-5′-yl)-3,4-dihydroisoquinolin-1(2H)-one]

Further lines, the compound ahead of its results:

Compound	IC50
CO[C@@H]1CCN(Cc2cc(-c3cc(-c4ccc5c(c4)CCNC5=O)c(N)nc3F)ccc2N2CCOCC2)C1 [I-563, (R)-6-(2-amino-6-fluoro-5-(3-((3-methoxypyrrolidin-1-yl)methyl)-4-morpholinophenyl)pyridin-3-yl)-3,4-dihydroisoquinolin-1(2H)-one]	11 to 100 nM
CO[C@@H]1CCN(Cc2cc(-c3cc(-c4cc5c(cc4F)C(=O)NCC5)c(N)nc3F)ccc2N2CCOCC2)C1 [I-564, (R)-6-(2-amino-6-fluoro-5-(3-((3-methoxypyrrolidin-1-yl)methyl)-4-morpholinophenyl)pyridin-3-yl)-7-fluoro-3,4-dihydroisoquinolin-1(2H)-one]	11 to 100 nM
CO[C@H]1CCN(Cc2cc(-c3cc(-c4ccc5c(c4)CCNC5=O)c(N)nc3F)ccc2N2CCOCC2)C1 [I-565, (S)-6-(2-amino-6-fluoro-5-(3-((3-methoxypyrrolidin-1-yl)methyl)-4-morpholinophenyl)pyridin-3-yl)-3,4-dihydroisoquinolin-1(2H)-one]	0.1 to 10 nM
CO[C@H]1CCN(Cc2cc(-c3cc(-c4cc5c(cc4F)C(=O)NCC5)c(N)nc3F)ccc2N2CCOCC2)C1 [I-566, (S)-6-(2-amino-6-fluoro-5-(3-((3-methoxypyrrolidin-1-yl)methyl)-4-morpholinophenyl)pyridin-3-yl)-7-fluoro-3,4-dihydroisoquinolin-1(2H)-one]	0.1 to 10 nM
Cc1cc2cc(-c3cc(-c4ccc(N5CCN(CCCC(F)F)CC5)cc4)c(F)nc3N)cc(F)c2c(=O)[nH]1 [I-567, 6-(2-amino-5-(4-(4-(4,4-difluorobutyl)piperazin-1-yl)phenyl)-6-fluoropyridin-3-yl)-8-fluoro-3-methylisoquinolin-1(2H)-one]	0.1 to 10 nM
CC(=O)N1CCC(Oc2ccc(-c3cc(-c4ccc5c(c4)CCNC5=O)c(N)nc3F)cc2CN(C)C)CC1 [I-568, 6-(5-(4-((1-acetylpiperidin-4-yl)oxy)-3-((dimethylamino)methyl)phenyl)-2-amino-6-fluoropyridin-3-yl)-3,4-dihydroisoquinolin-1(2H)-one]	0.1 to 10 nM
CC(=O)N1CCC(Oc2ccc(-c3cc(-c4cc5c(cc4F)C(=O)NCC5)c(N)nc3F)cc2CN(C)C)CC1 [I-569, 6-(5-(4-((1-acetylpiperidin-4-yl)oxy)-3-((dimethylamino)methyl)phenyl)-2-amino-6-fluoropyridin-3-yl)-7-fluoro-3,4-dihydroisoquinolin-1(2H)-one]	11 to 100 nM
CC(C)N1CCN(c2ccc(-c3cc(-c4cc5c(Cl)c[nH]c(=O)c5cn4)c(N)nc3F)cc2)CC1 [I-570, 6-(2-amino-6-fluoro-5-(4-(4-isopropylpiperazin-1-yl)phenyl)pyridin-3-yl)-4-chloro-2,7-naphthyridin-1(2H)-one]	0.1 to 10 nM
Cc1c[nH]c(=O)c2c(F)cc(-c3cc(-c4ccc(N5CCN(C(C)C)CC5)cc4)c(F)nc3N)cc12 [I-571, 6-(2-amino-6-fluoro-5-(4-(4-isopropylpiperazin-1-yl)phenyl)pyridin-3-yl)-8-fluoro-4-methylisoquinolin-1(2H)-one]	0.1 to 10 nM
Cc1[nH]c(=O)c2cc(F)c(-c3cc(-c4ccc(N5CCN(C(C)C)CC5)cc4)c(F)nc3N)cc2c1F [I-572, 6-(2-amino-6-fluoro-5-(4-(4-isopropylpiperazin-1-yl)phenyl)pyridin-3-yl)-4,7-difluoro-3-methylisoquinolin-1(2H)-one]	0.1 to 10 nM
COCCN(C)Cc1cc(-c2cc(-c3ccc4c(c3)CCNC4=O)c(N)nc2F)ccc1C1CCOCC1 [I-573, 6-(2-amino-6-fluoro-5-(3-(((2-methoxyethyl)(methyl)amino)methyl)-4-(tetrahydro-2H-pyran-4-yl)phenyl)pyridin-3-yl)-3,4-dihydroisoquinolin-1(2H)-one]	0.1 to 10 nM
COCCN(C)Cc1cc(-c2cc(-c3cc4c(cc3F)C(=O)NCC4)c(N)nc2F)ccc1C1CCOCC1 [I-574, 6-(2-amino-6-fluoro-5-(3-(((2-methoxyethyl)(methyl)amino)methyl)-4-(tetrahydro-2H-pyran-4-yl)phenyl)pyridin-3-yl)-7-fluoro-3,4-dihydroisoquinolin-1(2H)-one]	0.1 to 10 nM
C[C@@H]1CN(c2ccc(-c3cc(-c4ccc5c(c4)CCNC5=O)c(N)nc3F)cc2CN(C)C)CCO1 [I-575, (R)-6-(2-amino-5-(3-((dimethylamino)methyl)-4-(2-methylmorpholino)phenyl)-6-fluoropyridin-3-yl)-3,4-dihydroisoquinolin-1(2H)-one]	11 to 100 nM
C[C@@H]1CN(c2ccc(-c3cc(-c4cc5c(cc4F)C(=O)NCC5)c(N)nc3F)cc2CN(C)C)CCO1 [I-576, (R)-6-(2-amino-5-(3-((dimethylamino)methyl)-4-(2-methylmorpholino)phenyl)-6-fluoropyridin-3-yl)-7-fluoro-3,4-dihydroisoquinolin-1(2H)-one]	0.1 to 10 nM
Cc1c[nH]c(=O)c2cc(F)c(-c3cc(-c4ccc(N5CCN(C(C)C)CC5)cc4)c(F)nc3N)cc12 [I-577, 6-(2-amino-6-fluoro-5-(4-(4-isopropylpiperazin-1-yl)phenyl)pyridin-3-yl)-7-fluoro-4-methylisoquinolin-1(2H)-one]	0.1 to 10 nM
Nc1nc(F)c(-c2ccc(N3CCOCC3)c(CN3CCC3)n2)cc1-c1ccc2c(c1)CCNC2=O [I-578, 6-(6′-amino-6-(azetidin-1-ylmethyl)-2-fluoro-5-morpholino-[2,3′-bipyridin]-5′-yl)-3,4-dihydroisoquinolin-1(2H)-one]	0.1 to 10 nM
Nc1nc(F)c(-c2ccc(N3CCOCC3)c(CN3CCC3)n2)cc1-c1cc2c(cc1F)C(=O)NCC2 [I-579]	0.1 to 10 nM
CCN(C)Cc1nc(-c2cc(-c3cc4c(cc3F)C(=O)NCC4)c(N)nc2F)ccc1N1CCOCC1 [I-581, 6-(6′-amino-6-((ethyl(methyl)amino)methyl)-2′-fluoro-5-morpholino-[2,3′-bipyridin]-5′-yl)-7-fluoro-3,4-dihydroisoquinolin-1(2H)-one]	0.1 to 10 nM
COCCN(C)Cc1nc(-c2cc(-c3ccc4c(c3)CCNC4=O)c(N)nc2F)ccc1N1CCOCC1 [I-582, 6-(6′-amino-2′-fluoro-6-(((2-methoxyethyl)(methyl)amino)methyl)-5-morpholino-[2,3′-bipyridin]-5′-yl)-3,4-dihydroisoquinolin-1(2H)-one]	0.1 to 10 nM
